Measurements taken from patent US20030054047A1 (priority 2001, published 2003).
Values after ≈ are worked out from the molar mass of the structure shown.

Tests used:
Influenza virus A/90-15 [1] = experiment: microbe, parasite or virus in culture; format: cell-based, Influenza virus type A (H3N2) strain Jifeng A/90-15
Influenza virus B/97-13 [2] = experiment: Preventive assay: MDCK cells pre-treated 24 hours, then infected, influenza B; format: cell-based, Influenza virus type B strain Jifeng B/97-13; conditions: drug added 24 hours before infection
Method: (§1) Preventive assay: Cell culture plate pre-treated with different concentrations of sample solutions for 24 hours, washed out the drugs, then infected with viruses, incubated, washed, observed and calculated the inhibition % as above.

Influenza virus A/90-15 [3] = experiment: Preventive assay: MDCK cells pre-treated 24 hours, then infected, influenza A; format: cell-based, Influenza virus type A (H3N2) strain Jifeng A/90-15; conditions: drug added 24 hours before infection
Method: as §1

Influenza virus B/97-13 [4] = experiment: microbe, parasite or virus in culture; format: cell-based, Influenza virus type B strain Jifeng B/97-13

SMILES: NC(=O)c1ncn([C@@H]2O[C@H](CO)[C@@H](O)[C@H]2O)n1 [Ribavirin, 1-β-D-ribafuranosyl-1,2,4-triazole-3-carboxamide]
- Inhibition of virus CPE (in words) (Influenza virus A/90-15 [1]): effective
- IC50 (Influenza virus A/90-15 [1]; unidentified influenza virus, MDCK, read-out: Influenza virus A/90-15 IC50): 70 ± 40 µg/mL (≈ 287 µM)
- Activity on pretreatment for 24 hours (in words) (Influenza virus B/97-13 [2]): effective
- Activity on pretreatment for 24 hours (in words) (Influenza virus A/90-15 [3]): effective
- Inhibition of virus CPE (in words) (Influenza virus B/97-13 [4]): effective
- IC50 (Influenza virus B/97-13 [4]; unidentified influenza virus, MDCK, read-out: Influenza virus B/97-13 IC50): 60 ± 30 µg/mL (≈ 246 µM)
